Experimental data from patent US20040106143A1, “Monoclonal antibody against estrogen stimulated leucine aminopeptidase” (priority 2000, published 2004).

Assays:
[1] = tested on: primary parental breast carcinoma cells; experiment: LAPase release into cell supernatants following estrogen stimulation; format: cell-based, human
Experimental: Primary parental breast carcinoma cells were incubated with 100 nM 17-β-Estradiol for 24 hrs and cell media alone as a control. LAPase in supernatants was isolated using MAb 7B6(IgG1a)-protein-G-LAPase beads prepared by covalently cross-linking the monoclonal antibody. LAPase activity of the LAPase-immunoprecipitated supernatants was determined fluorometrically using leucine-β-naphthylamide as the substrate as described by Kuramochi et al. [Kuramochi, H. et al., (1987) J. Antibiot., 401605-1611].
During the same period, LAPase in cell supernatants of control cells remain unchanged. In addition, LAPase activity was determined in supernatants of primary parental cell lines immunoprecipitated with MAb 7B6(IgG1a)-protein-G-LAPase matrix bound antibodies. […] In addition, there was no effect of estrogen incubation on LAPase activity in purified preparations of this enzyme alone.

[2] = tested on: LAPase (purified preparations obtained from Sigma); experiment: LAPase activity of purified enzyme preparations incubated with 17-β-Estradiol; format: biochemical; conditions: 100 nM 17-β-Estradiol, 24 hrs
Experimental: Purified preparations of the enzyme obtained from Sigma were incubated with 100 nM 17-β-Estradiol for 24 hrs. LAPase activity was determined fluorometrically using leucine-β-naphthylamide as the substrate as described by Kuramochi et al. [Kuramochi, H. et al., (1987) J. Antibiot., 401605-1611].

es-LAPase = es-LAPase enzyme kinetic inhibition assay (1-leucine-β-naphthylamide substrate); format: biochemical, human; conditions: for effect on es-LAPase activity / reaction rate (FIG. 2): 167 μM Bestatin, 167 μM reduced Glutathione, 17 μM reduced thioredoxin, versus control es-LAPase; for Km / Vmax of es-LAPase in presence of inhibitor / Ki: Bestatin 167 μM, Glutathione 167 μM, Thioredoxin 17 μM; for Km: LAPase alone 1.67 ± 0.14, read-out: Km of es-LAPase in presence of inhibitor; for Vmax of es-LAPase in presence of inhibitor: LAPase alone 36.8 ± 1.9; for Ki: read-out: Ki (inhibition constant); for mode of es-LAPase inhibition: from Vmax, Km and Ki analysis
Experimental: The kinetic assays were performed using a Spectronic Genesys 5 spectrophotometer from Milton Roy (Rochester, N.Y.). Absorbance was recorded every sixty seconds, over a period of 30 min. Enzyme kinetic assays were performed using 8.0×10^−2 U of es-LAPase in a final reaction volume of 600 μl and triplicate samples. […] A corresponding blank without es-LAPase was used as baseline. Both of the cuvettes were transferred to the spectrophotometer where the 1-leucine-β-naphthylmide solution was added last, marking time zero of the reaction.

C[C@]12CC[C@@H]3c4ccc(O)cc4CC[C@H]3[C@@H]1CC[C@@H]2O [estrogen, 17-β-Estradiol]
extracellular LAPase activity of estrogen stimulated cells ([1]; 100 nM, 24 hours, supernatants immunoprecipitated with MAb 7B6-protein-G matrix, control with media alone 6.4×10^−6 U/ml): 7.7×10^−5 U/ml
estrogen concentration of maximum release / optimal activation of LAPase ([1]; 24 hours of incubation, dose-dependent): 100 nM
effect of estrogen incubation on LAPase activity in purified preparations of the enzyme alone [2]: no effect

N[C@@H](CCC(=O)N[C@@H](CS)C(=O)NCC(=O)O)C(=O)O [Glutathione]
effect on es-LAPase activity / reaction rate (FIG. 2) (es-LAPase): significant slower rates of reaction
Km (es-LAPase): 178 ± 25 µM
Vmax of es-LAPase in presence of inhibitor (es-LAPase): 17.2 ± 1.5 10^−6 M/min
Ki (es-LAPase): 1530 ± 400 nM
mode of es-LAPase inhibition (es-LAPase): noncompetitive

CC(C)C[C@H](NC(=O)[C@@H](O)[C@H](N)Cc1ccccc1)C(=O)O [Bestatin]
effect on es-LAPase activity / reaction rate (FIG. 2) (es-LAPase): clearly inhibits es-LAPase activity
Vmax of es-LAPase in presence of inhibitor (es-LAPase): 34.0 ± 3.9 10^−6 M/min
mode of es-LAPase inhibition (es-LAPase): competitive

B1: Thioredoxin: thiol-containing peptide; human Thioredoxin purified from CD4+T MP6 cells, compared to E. coli Thioredoxin from Sigma-Aldrich (protein, UniProt P10599 2-105, looked up)
Thioredoxin: VKQIESKTAFQEALDAAGDKLVVVDFSATWCGPCKMIKPFFHSLSEKYSNVIFLEVDVDDCQDVASECEVKCMPTFQFFKKGQKVGEFSGANKEKLEATINELV
effect on es-LAPase activity / reaction rate (FIG. 2) (es-LAPase): significant slower rates of reaction
Km (es-LAPase): 23.4 ± 0.6 µM
Vmax of es-LAPase in presence of inhibitor (es-LAPase): 5.31 ± 0.02 10^−6 M/min
Ki (es-LAPase): 3400 ± 580 nM
mode of es-LAPase inhibition (es-LAPase): uncompetitive
